{"source": "BindingDB's records for doi:10.1021/cc0501561", "about": "(East China Univesity of Science and Technology, 2006)"}
{"target": "Peptidyl-prolyl cis-trans isomerase A (Homo sapiens, UniProt P62937)", "sequence (P62937 whole entry)": "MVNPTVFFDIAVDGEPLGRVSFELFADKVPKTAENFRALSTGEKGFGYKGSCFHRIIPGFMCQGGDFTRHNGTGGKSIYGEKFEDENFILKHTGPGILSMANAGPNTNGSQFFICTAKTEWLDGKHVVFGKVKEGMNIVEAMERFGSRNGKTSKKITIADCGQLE", "test": "Surface Plasmon Resonance Assay", "conditions": "pH 7.4; 25 °C", "experimental": "CypA in vitro were determined by employing surface plasmon resonance (SPR) technology.", "units": {"IC50": "µM", "Kd": "µM"}}
{"smiles": "Cc1cc(NS(=O)(=O)c2ccc(NC(=O)c3ccc4nc(-c5ccco5)c(-c5ccco5)nc4c3)cc2)no1", "note": "[CypA Inhibitor, 4e]", "IC50": 2.86, "Kd": 38.7}
{"smiles": "CC(C)(C)NC(=O)[C@@H]1Cc2ccccc2CN1Cc1cc(-c2cccc(Cl)c2)nc2ccccc12", "note": "[CypA Inhibitor, 1a]", "Kd": 24.3}
{"smiles": "O=C(Nc1ccc(S(=O)(=O)Nc2cnc3ccccc3n2)cc1)c1ccc2nc(-c3ccco3)c(-c3ccco3)nc2c1", "note": "[CypA Inhibitor, 4g]", "IC50": 0.78, "Kd": 35.3}
{"smiles": "Cc1noc(NS(=O)(=O)c2ccc(NC(=O)c3ccc4nc(-c5ccco5)c(-c5ccco5)nc4c3)cc2)c1C", "note": "[CypA Inhibitor, 4b]", "Kd": 27.3}
{"smiles": "CCOC(=O)[C@@H]1CCCN(Cc2cc(-c3ccc4ccccc4c3)nc3ccccc23)C1", "note": "[CypA Inhibitor, 1d]", "Kd": 17.2}
{"smiles": "Cc1ccnc(NS(=O)(=O)c2ccc(NC(=O)c3ccc4nc(-c5ccco5)c(-c5ccco5)nc4c3)cc2)n1", "note": "[CypA Inhibitor, 4c]", "IC50": 6.43, "Kd": 41}
{"smiles": "O=C(Nc1ccc(S(=O)(=O)Nc2ncccn2)cc1)c1ccc2nc(-c3ccco3)c(-c3ccco3)nc2c1", "note": "[CypA Inhibitor, 4f]", "IC50": 0.96, "Kd": 22.8}
{"smiles": "Cc1cc(C)nc(NS(=O)(=O)c2ccc(NC(=O)c3ccc4nc(-c5ccco5)c(-c5ccco5)nc4c3)cc2)n1", "note": "[CypA Inhibitor, 4d]", "Kd": 30.8}
{"smiles": "CCOC(=O)[C@H]1CCCN(C(=O)Nc2cc(-c3cccc(Cl)c3)nc3ccccc23)C1", "note": "[CypA Inhibitor, 2b]", "Kd": 28.8}
{"smiles": "CC(C)CCOC(=O)Nc1cc(-c2ccc3ccccc3c2)nc2ccccc12", "note": "[CypA Inhibitor, 2a]", "Kd": 0.0762}
{"smiles": "CC(C)(C)NC(=O)[C@@H]1Cc2ccccc2CN1Cc1cc(-c2ccc3ccccc3c2)nc2ccccc12", "note": "[CypA Inhibitor, 1b]", "Kd": 3.07}
{"smiles": "CCN(CC)C(=O)CNCc1cc(-c2ccc3ccccc3c2)nc2ccccc12", "note": "[CypA Inhibitor, 1e]", "Kd": 3.41}
{"smiles": "COC(=O)c1cc(C(=O)Nc2ccc(S(=O)(=O)Nc3onc(C)c3C)cc2)ccc1NCc1ccccc1", "note": "[CypA Inhibitor, 3b]", "Kd": 10.8}
{"smiles": "c1ccc2cc(-c3cc(CN4CCCCC4)c4ccccc4n3)ccc2c1", "note": "[CypA Inhibitor, 1c]", "Kd": 0.212}
{"smiles": "COC(=O)c1cc(NC(=O)c2ccc3nc(-c4ccco4)c(-c4ccco4)nc3c2)ccc1NCc1ccccc1", "note": "[CypA Inhibitor, 4a]", "IC50": 0.25, "Kd": 8.19}
{"smiles": "COC(=O)c1cc(C(=O)Nc2cc(-c3cccc(Cl)c3)nc3ccccc23)ccc1NCc1ccccc1", "note": "[CypA Inhibitor, 3a]", "Kd": 8.18}
